Entries after “also recorded” stand apart in the source; their conditions may differ.
How the values were obtained:
RII = molecular target: T1, RII (Mus musculus, UniProt P12367); assay: R-overlay (solid-phase binding) of 32P-labelled RII on membrane-synthesized peptides; design: species or system murine
T1 construct: His tag; made in house; host or cells: E. coli BL21 (B121 [sic])
Experimental: Autospot Peptide Array. Peptide arrays were synthesized on cellulose paper by using an Autospot Robot ASP222 (ABiMED, Langenfeld, Germany) as described (Frank, R., 1992, Tetrahedron 48, 123-132) or Multipep automated peptide synthesizer (INTAVIS Bioanalytical Instruments AG, Koeln, Germany) as described (Frank, R., 1992, Tetrahedron 48, 123-132).
R-overlay. R-overlays were conducted as described, using ^32P-labeled recombinant murine RII (Hausken, Z. E., et al., 1998 in Protein Targeting Protocols, ed. Clegg, R. A. (Humana, Totowa, N.J.), Vol. 88, pp. 47-64) or recombinant bovine RI (A98S) or by cold RI-overlay where bound RIα was detected by Western blot. Cold RI-overlay was performed by incubating the membranes with 250 nM RI overnight at 4° C., then the membranes were washed five times in TBST for 5 min. Detection of RI was performed using an anti-RI rabbit polyclonal antibody (Santa Cruz) at a concentration of 0.2 μg/μl for 1 hour at 4° C. Then the membranes were washed five times for 5 minutes in PBS followed by incubation with HRP-conjugated anti-rabbit IgGs (1:5000) for 1 hour at 4° C. […]
Densitometric analysis. The densitometric analysis was performed using Scion Image (www.scioncorp.com) (Scion Coorperation, Mo., USA) or Quantity One version 4.5.0, (BioRad).

PKA-RIα = PKA-RIα (Homo sapiens, UniProt P10644); assay: Immunofluorescence of PKA-RIα localisation in human T cells; format: cell-based; design: endogenous in cells; host or cells: human peripheral blood CD3+ T cells; settings: 5 μM
Experimental: Immunofluorescence analysis of cells was performed as previously described (Collas, P. et al., 1996, J. Cell Biol. 135, 1715-1725). RI was detected by using an anti-RI monoclonal antibody (Transduction Laboratories) as a primary antibody at a […] and Alexa-488 as a secondary antibody (1:600, Goat anti Mouse IgGs, Molecular Probes). Immunofluorescence was performed on Y1 cells attached to collagen/fibronectin coated coverslips. Mitochondria were stained using MitoTracker Red CMXRos (Molecular Probes) in fresh medium with incubation at 37° C. for 30 min prior to cell fixation. All cells were washed in PBS, fixed with 3% paraformaldehyde and permeabilised using 0.1% Triton X-100. Proteins were blocked in 2% BSA/PBST prior to antibody labeling. Primary and secondary antibodies were used at a 1:200 dilution in BSA/PBST and incubated for 30 min. DNA was counterstained using TO-PRO 3 (Molecular Probes) at a concentration of 1 μM. […] Alternatively, fluorescently labeled cells were examined using a Leica TCS SP1 confocal fluorescence microscope (Leica, Heidelberg, Germany) equipped with an Ar (488 nm) and two He/Ne (543 and 633 nm) laser lines. […]
Isolated human peripheral blood T cells were treated with MEME3-Arg11 peptide at different concentrations, and the location of PKARIα determined by immunofluorescence.

StAR = StAR protein level in Y1 adrenal cells (immunoblot densitometry); format: cell-based, mouse
Experimental: Progesterone production and StAR protein level. Y1 cells were cultured overnight in 6-well plates at the density of 1.5×10^6 cells per well. To increase the basal level of StAR, the cells were pre-stimulated with 10 μM forskolin for 1 hour, washed twice with medium, before peptide loading. Thereafter, the cells were loaded with 50 μM of the arginine-coupled peptide for 5 hours before being treated with 5 μg/ml Actinomyocin D (Cat. No. A-9415, Sigma) for 30 min and stimulated with 10 μM forskolin (Cat. No. 344270, Calbiochem) or 10 IU/ml ACTH (Cat. No. A-6303, Sigma) for 12 hours. Media from cultures with different treatments were collected and diluted with plain medium to fall into the standard curves for the assay. Progesterone in the cell medium was measured by using either Spectria Progesterone RIA (Cat. No. 68521, Orion Diagnostica, Espoo, Finland) or DELFIA progesterone kit (Cat. No. A066-101, PerkinElmer) following the conditions recommended by the manufacture. The cells were lysed and the StAR protein was analysed by western blotting and the level measured by densiometric analysis.
StAR protein levels in the samples from Example 28 were analysed by immunoblotting. StAR consists of a 37-kDa precursor form containing an N-terminal mitochondrial targeting sequence and a processed 30-kDa mature protein (Epstein and Ormejohnson, 1991; Stocco and Sodeman, 1991). Y1 adrenal cells expressed a low basal level of StAR (FIG. 27, upper panel, lane 1). Upon forskolin stimulation, a significant increase in mature StAR protein (lane 2) occurred consistent with an increase in cholesterol transport over the mitochondrial membrane and a corresponding increase in steroid biosynthesis (bar diagram in FIG. 26). The forskolin-stimulated levels of StAR protein were reduced by 60% in MEME3-Arg11 treated cells (lane 5 and lower panel). In contrast, treatment with SM3-Arg11 reduced StAR levels by […] (lane 8, and lower panel). Thus, MEME3-Arg11 reduced StAR levels by […] as SM3-Arg11. […]

T1 sequence (P12367 whole entry): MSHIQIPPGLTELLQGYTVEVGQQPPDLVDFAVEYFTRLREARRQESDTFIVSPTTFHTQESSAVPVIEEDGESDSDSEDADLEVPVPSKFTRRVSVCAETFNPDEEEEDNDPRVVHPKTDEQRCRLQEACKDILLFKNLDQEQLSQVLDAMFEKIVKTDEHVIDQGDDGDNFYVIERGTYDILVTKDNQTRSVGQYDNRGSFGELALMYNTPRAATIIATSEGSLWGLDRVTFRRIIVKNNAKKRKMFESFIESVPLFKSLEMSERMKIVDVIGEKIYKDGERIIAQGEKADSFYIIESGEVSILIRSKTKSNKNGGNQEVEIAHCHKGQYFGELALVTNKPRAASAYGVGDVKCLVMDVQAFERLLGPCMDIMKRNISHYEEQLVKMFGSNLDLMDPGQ

| Compound | affinity for RII compared to PDSM (RII; densitometry of autoradiographs, lower) | competition of RII binding to an RII specific binding sequence (RII; up to 100 μM peptide in solution) | displacement of RI from T cell membranes / cell periphery (PKA-RIα) | reduction of StAR levels relative to SM3-Arg11 (StAR) | reduction of forskolin-stimulated levels of StAR protein (StAR; forskolin) | basal StAR level (StAR; unstimulated) |
| --- | --- | --- | --- | --- | --- | --- |
| CC[C@H](C)[C@H](NC(=O)[C@H](CCC(N)=O)NC(=O)[C@H](CC(=O)O)NC(=O)[C@H](C)NC(=O)[C@H](CC(C)C)NC(=O)[C@H](CCC(N)=O)NC(=O)[C@H](CC(N)=O)NC(=O)[C@H](C)NC(=O)[C@H](Cc1ccc(O)cc1)NC(=O)[C@H](CCC(N)=O)NC(=O)[C@H](CCC(=O)O)NC(=O)[C@@H](N)CC(C)C)C(=O)N[C@H](C(=O)N[C@@H](CCCCN)C(=O)N[C@@H](CCC(=O)O)C(=O)N[C@@H](C)C(=O)N[C@H](C(=O)N[C@@H](CCC(=O)O)C(=O)N[C@@H](CCCCNC(=O)c1ccc2c(c1)C(=O)OC21c2ccc(O)cc2Oc2cc(O)ccc21)C(N)=O)[C@@H](C)O)[C@@H](C)CC [MEME3] | 0.5 times | not able to compete the RII binding | – | – | – | – |
| LEQYANQLADQIIKEATERRRRRRRRRrr [MEME3-Arg11] | – | – | Displacement of RI from T cell membranes was observed; also recorded: displaced and delocalized | twice as much | 60% | somewhat higher basal StAR level |
